# Measured values published in patent publication US20150105252A1, “SUBSTITUTED PYRAZOLES AS HERBICIDES” (E I DU PONT DE NEMOURS AND COMPANY, priority 2013, published 2015).
# Experiments:
# [1] = system: canarygrass; test: Test D preemergence; assay type: in vivo, Phalaris minor; settings: for Plant response rating, Canarygrass: Preemergence, scale 0 to 100
# From the text: (§1) Seeds of plant species selected from bluegrass (annual bluegrass, Poa annua), blackgrass (Alopecurus myosuroides), canarygrass (littleseed canarygrass, Phalaris minor), chickweed (common chickweed, Stellaria media), galium (catchweed bedstraw, Galium aparine), bromegrass, downy (downy bromegrass, Bromus tectorum), field poppy (Papaver rhoeas), field violet (Viola arvensis), foxtail, green (green foxtail, Setaria viridis), deadnettle (henbit deadnettle, Lamium amplexicaule), ryegrass, Italian (Italian ryegrass, Lolium multiflorum), kochia (Kochia scoparia), lambsquarters (Chenopodium album), oilseed rape (Brassica napus), pigweed (redroot pigweed, Amaranthus retroflexus), chamomile (scentless chamomile, Matricaria inodora), speedwell (bird's-eye speedwell, Veronica persica), barley, spring (spring barley, Hordeum vulgare), wheat, spring (spring wheat, Triticum aestivum), buckwheat, wild (wild buckwheat, Polygonum convolvulus), mustard, wild (wild mustard, Sinapis arvensis), oat, wild (wild oat, Avena fatua), radish, wild (wild radish, Raphanus raphanistrum), windgrass (Apera spica-venti), Russian thistle (Salsola kali), barley, winter (winter barley, Hordeum vulgare), and wheat, winter (winter wheat, Triticum aestivum) were planted into a silt loam soil and treated preemergence with test chemicals formulated in a non-phytotoxic solvent mixture which included a surfactant.
# (§2) At the same time, these species were planted in pots containing Redi-Earth® planting medium (Scotts Company, 14111 Scottslawn Road, Marysville, Ohio 43041) comprising spaghnum peat moss, vermiculite, wetting agent and starter nutrients and treated with postemergence applications of the test chemicals formulated in the same manner. Plants ranged in height from 2 to 18 cm (1- to 4-leaf stage). Treated plants and controls were maintained in a controlled growth environment for 14 to 21 days after which time all species were compared to controls and visually evaluated. Plant response ratings, summarized in Table D, are based on a scale of 0 to 100 where 0 is no effect and 100 is complete control. A dash (-) response means no test result.
# [2] = system: galium; test: Test D postemergence; assay type: in vivo, Galium aparine; settings: scale 0 to 100
# From the text: as §1, §2
# [3] = system: deadnettle; test: Test D preemergence; assay type: in vivo, Lamium amplexicaule; settings: for Plant response rating, Deadnettle: Preemergence, scale 0 to 100
# From the text: as §1, §2
# [4] = system: bluegrass; test: Test D postemergence; assay type: in vivo, Poa annua; settings: scale 0 to 100
# Summary of the method: (§3)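 Visual 0-100 rating (100 = complete control) against untreated plants, made 14 to 21 days after treatment in a controlled environment. Compounds, formulated with surfactant in non-phytotoxic solvent, were applied either to seeds just sown in silt loam or to 1- to 4-leaf plants (2 to 18 cm) grown in peat-based medium.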
# [5] = system: bluegrass; test: Test D preemergence; assay type: in vivo, Poa annua; settings: for Plant response rating, Bluegrass: Preemergence, scale 0 to 100
# From the text: as §1, §2
# [6] = system: field violet; test: Test D preemergence; assay type: in vivo, Viola arvensis; settings: for Plant response rating, Field Violet: Preemergence, scale 0 to 100
# Summary of the method: as §3
# [7] = system: speedwell; test: Test D preemergence; assay type: in vivo, Veronica persica; settings: for Plant response rating, Speedwell: Preemergence, scale 0 to 100
# From the text: as §1, §2
# [8] = system: buckwheat, wild; test: Test D preemergence; assay type: in vivo, Polygonum convolvulus; settings: for Plant response rating, Buckwheat, Wild: Preemergence, scale 0 to 100
# From the text: as §1, §2
# [9] = system: pigweed; test: Test D preemergence; assay type: in vivo, Amaranthus retroflexus; settings: for Plant response rating, Pigweed: Preemergence, scale 0 to 100
# Summary of the method: as §3
# [10] = system: chamomile; test: Test D postemergence; assay type: in vivo, Matricaria inodora; settings: scale 0 to 100
# Summary of the method: as §3
# [11] = system: barley, spring; test: Test D preemergence; assay type: in vivo, Hordeum vulgare; settings: for Plant response rating, Barley, Spring: Preemergence, scale 0 to 100
# Summary of the method: as §3
# [12] = system: barley, winter; test: Test D preemergence; assay type: in vivo, Hordeum vulgare; settings: for Plant response rating, Barley, Winter: Preemergence, scale 0 to 100
# Summary of the method: as §3
# [13] = system: lambsquarters; test: Test D postemergence; assay type: in vivo, Chenopodium album; settings: scale 0 to 100
# From the text: as §1, §2
# [14] = system: mustard, wild; test: Test D postemergence; assay type: in vivo, Sinapis arvensis; settings: scale 0 to 100
# From the text: as §1, §2
# [15] = system: chamomile; test: Test D preemergence; assay type: in vivo, Matricaria inodora; settings: for Plant response rating, Chamomile: Preemergence, scale 0 to 100
# Summary of the method: as §3
# [16] = system: blackgrass; test: Test D postemergence; assay type: in vivo, Alopecurus myosuroides; settings: scale 0 to 100
# Summary of the method: as §3
# [17] = system: ryegrass, Italian; test: Test D preemergence; assay type: in vivo, Lolium multiflorum; settings: for Plant response rating, Ryegrass, Italian: Preemergence, scale 0 to 100
# From the text: as §1, §2
# [18] = system: pigweed; test: Test D postemergence; assay type: in vivo, Amaranthus retroflexus; settings: scale 0 to 100
# Summary of the method: as §3
# [19] = system: bromegrass, downy; test: Test D postemergence; assay type: in vivo, Bromus tectorum; settings: scale 0 to 100
# Summary of the method: as §3
# [20] = 16 g ai/ha, taken as preemergence
structure (smiles),measurement,setting,value
Cc1cc(C(=O)NCC(F)(F)F)nn1Cc1ccnc(C(F)(F)F)c1 [Compound 74],"Plant response rating (scale 0 to 100), Canarygrass",[1]; [20],0
same,"Plant response rating, Canarygrass",[1]; 31 g ai/ha,0
same,"Plant response rating, Canarygrass",[1]; 62 g ai/ha,0
same,"Plant response rating, Canarygrass",[1]; 125 g ai/ha,5
same,"Plant response rating, Galium","[2]; Postemergence, 16 g ai/ha",10
same,Galium plant response rating,"[2]; Postemergence, 31 g ai/ha",20
same,Galium plant response rating,"[2]; Postemergence, 125 g ai/ha",70
same,Galium plant response rating,"[2]; postemergence, 62 g ai/ha",40
same,"Plant response rating (scale 0 to 100), Deadnettle",[3]; [20],0
same,"Plant response rating, Deadnettle",[3]; 31 g ai/ha,5
same,"Plant response rating, Deadnettle",[3]; 62 g ai/ha,10
same,"Plant response rating, Deadnettle",[3]; 125 g ai/ha,20
same,"Plant response rating, Bluegrass","[4]; Postemergence, 16 g ai/ha",5
same,Bluegrass plant response rating,"[4]; Postemergence, 31 g ai/ha",5
same,Bluegrass plant response rating,"[4]; Postemergence, 125 g ai/ha",5
same,Bluegrass plant response rating,"[4]; postemergence, 62 g ai/ha",5
same,"Plant response rating (scale 0 to 100), Bluegrass",[5]; [20],0
same,"Plant response rating, Bluegrass",[5]; 31 g ai/ha,0
same,"Plant response rating, Bluegrass",[5]; 62 g ai/ha,0
same,"Plant response rating, Bluegrass",[5]; 125 g ai/ha,5
same,"Plant response rating (scale 0 to 100), Field Violet",[6]; [20],25
same,"Plant response rating, Field Violet",[6]; 31 g ai/ha,60
same,"Plant response rating, Field Violet",[6]; 62 g ai/ha,60
same,"Plant response rating, Field Violet",[6]; 125 g ai/ha,95
same,"Plant response rating (scale 0 to 100), Speedwell",[7]; [20],100
same,"Plant response rating, Speedwell",[7]; 31 g ai/ha,100
same,"Plant response rating, Speedwell",[7]; 62 g ai/ha,100
same,"Plant response rating, Speedwell",[7]; 125 g ai/ha,100
same,"Plant response rating (scale 0 to 100), Buckwheat, Wild",[8]; [20],25
same,"Plant response rating, Buckwheat, Wild",[8]; 31 g ai/ha,35
same,"Plant response rating, Buckwheat, Wild",[8]; 62 g ai/ha,45
same,"Plant response rating, Buckwheat, Wild",[8]; 125 g ai/ha,65
same,"Plant response rating (scale 0 to 100), Pigweed",[9]; [20],15
same,"Plant response rating, Pigweed",[9]; 31 g ai/ha,30
same,"Plant response rating, Pigweed",[9]; 62 g ai/ha,70
same,"Plant response rating, Pigweed",[9]; 125 g ai/ha,100
same,"Plant response rating, Chamomile","[10]; Postemergence, 16 g ai/ha",15
same,Chamomile plant response rating,"[10]; Postemergence, 31 g ai/ha",15
same,Chamomile plant response rating,"[10]; Postemergence, 125 g ai/ha",50
same,Chamomile plant response rating,"[10]; postemergence, 62 g ai/ha",20
same,"Plant response rating (scale 0 to 100), Barley, Spring","[11]; 16 g ai/ha, taken as preemergence, 0 = no effect, 100 = complete control",0
same,"Plant response rating, Barley, Spring",[11]; 31 g ai/ha,0
same,"Plant response rating, Barley, Spring",[11]; 62 g ai/ha,0
same,"Plant response rating, Barley, Spring",[11]; 125 g ai/ha,5
same,"Plant response rating (scale 0 to 100), Barley, Winter",[12]; [20],0
same,"Plant response rating, Barley, Winter",[12]; 31 g ai/ha,0
same,"Plant response rating, Barley, Winter",[12]; 62 g ai/ha,0
same,"Plant response rating, Barley, Winter",[12]; 125 g ai/ha,0
same,"Plant response rating, Lambsquarters","[13]; Postemergence, 16 g ai/ha",70
same,Lambsquarters plant response rating,"[13]; Postemergence, 31 g ai/ha",70
same,Lambsquarters plant response rating,"[13]; Postemergence, 125 g ai/ha",85
same,Lambsquarters plant response rating,"[13]; postemergence, 62 g ai/ha",75
same,"Plant response rating, Mustard, Wild","[14]; Postemergence, 16 g ai/ha",20
same,"Mustard, Wild plant response rating","[14]; Postemergence, 31 g ai/ha",30
same,"Mustard, Wild plant response rating","[14]; Postemergence, 125 g ai/ha",55
same,"Mustard, Wild plant response rating","[14]; postemergence, 62 g ai/ha",30
same,"Plant response rating (scale 0 to 100), Chamomile",[15]; [20],20
same,"Plant response rating, Chamomile",[15]; 31 g ai/ha,60
same,"Plant response rating, Chamomile",[15]; 62 g ai/ha,80
same,"Plant response rating, Chamomile",[15]; 125 g ai/ha,90
same,"Plant response rating, Blackgrass","[16]; Postemergence, 16 g ai/ha",0
same,Blackgrass plant response rating,"[16]; Postemergence, 31 g ai/ha",0
same,Blackgrass plant response rating,"[16]; Postemergence, 125 g ai/ha",0
same,Blackgrass plant response rating,"[16]; postemergence, 62 g ai/ha",5
same,"Plant response rating (scale 0 to 100), Ryegrass, Italian",[17]; [20],0
same,"Plant response rating, Ryegrass, Italian",[17]; 31 g ai/ha,0
same,"Plant response rating, Ryegrass, Italian",[17]; 62 g ai/ha,0
same,"Plant response rating, Ryegrass, Italian",[17]; 125 g ai/ha,0
same,"Plant response rating, Pigweed","[18]; Postemergence, 16 g ai/ha",65
same,Pigweed plant response rating,"[18]; Postemergence, 31 g ai/ha",50
same,Pigweed plant response rating,"[18]; Postemergence, 125 g ai/ha",65
same,Pigweed plant response rating,"[18]; postemergence, 62 g ai/ha",65
same,"Plant response rating, Bromegrass, Downy","[19]; Postemergence, 16 g ai/ha",0
same,"Bromegrass, Downy plant response rating","[19]; Postemergence, 31 g ai/ha",0
same,"Bromegrass, Downy plant response rating","[19]; Postemergence, 125 g ai/ha",0
same,"Bromegrass, Downy plant response rating","[19]; postemergence, 62 g ai/ha",0
